Data on 9 compounds can be found in patent US7081460B2, “Quinazoline and quinazoline-like compounds for the treatment of integrin-mediated disorders” (Ortho-McNeil Pharmaceutical, Inc., priority 2001, dated 2006).

One experiment addresses GPIIb/IIIa (Homo sapiens, UniProt P05106+P08514). The experiment can be described thus: In vitro solid phase purified glycoprotein IIb/IIIa binding assay (biotinylated fibrinogen). The settings on record: RGD-affinity purified GPIIb/IIIa, biotinylated fibrinogen; read-out: GPIIb/IIIa Binding IC50. On the procedure:
(§1) In vitro Solid Phase Purified αvβ3 Binding Assay The vitronectin/αvβ3 binding assay methods were derived from Mehta et al. (Biochem J. 1998, 330, 861). Human αvβ3 (Chemicon International Inc., Temecula, Calif.), at a concentration of 1 μg/ml dissolved in Tris buffer (20 mM Tris, 1 mM CaCl2, 1 mM MgCl2, 10 μM MnCl2, 150 mM NaCl), was immobilized on Immulon 96 well plates (Dynex Technologies, Chantilly, Va.) overnight at 4° C. Plates were washed and treated with blocking buffer (3% BSA in Tris buffer) for 2 h at 37 C. Plates were then rinsed 2 times in Tris buffer containing 0.3% BSA and 0.2% Tween20 (polyoxyethylenesorbitan monolaurate). Five minutes prior to the addition of 5 nM vitronectin (Sigma, St. Louis, Mo.), compounds of the invention were added to wells in duplicate. Each plate included c-RGDfV as an internal control. Following a 3 hour incubation at 37° C., plates were washed 5 times in assay buffer. An anti-human vitronectin IgG rabbit polyclonal antibody (Calbiochem, San Diego, Calif.) was added (1:2000) and plates were incubated for 1 hour at room temperature. VectaStain ABC peroxidase kit reagents (Vector Laboratories, Burlingame, Calif.) employing a biotin labeled anti-rabbit IgG, were utilized for detection of bound antibody. Plates were read at 490 nm on a Molecular Devices (Sunnyvale, Calif.) microplate reader. […] The plate was covered and incubated overnight at 4° C. The GPIIb/IIIa solution was discarded and 150 μl of 5% BSA was added and incubated at RT for 1–3 h. The plate was washed extensively with modified Tyrodes buffer. Biotinylated fibrinogen (25 μl/well) at 2× final concentration was added to the wells that contain the test compounds (25 μl/well). The plate was covered and incubated at RT for 2–4 h. Twenty minutes prior to incubation completion, one drop of Reagent A (VectaStain ABC Horse Radish Peroxidase kit, Vector Laboratories, Inc.) and one drop Reagent B were added with mixing to 5 mL modified Tyrodes buffer mix and let stand. The ligand solution was discarded and the plate washed (5×200 μl/well) with modified Tyrodes buffer. Vecta Stain HRP-Biotin-Avidin reagent (50 μl/well, as prepared above) was added and incubated at RT for 15 min. The Vecta Stain solution was discarded and the wells washed (5×200 μl/well) with modified Tyrodes buffer. Developing buffer (10 mL of 50 mM citrate/phosphate buffer @ pH 5.3, 6 mg o-phenylenediamine, 6 μl 30% H2O2; 50 μl/well) was added and incubated at rt for 3–5 min, and then 2 N H2SO4 (50 μl/well) was added. The absorbance was read at 490 nm.

A further experiment deals with T1, Human αvβ3 (Homo sapiens, UniProt P05106+P06756).
T1 construct: purchased Chemicon International Inc., Temecula, Calif
T1 sequence (P06756 31-889 limits assumed): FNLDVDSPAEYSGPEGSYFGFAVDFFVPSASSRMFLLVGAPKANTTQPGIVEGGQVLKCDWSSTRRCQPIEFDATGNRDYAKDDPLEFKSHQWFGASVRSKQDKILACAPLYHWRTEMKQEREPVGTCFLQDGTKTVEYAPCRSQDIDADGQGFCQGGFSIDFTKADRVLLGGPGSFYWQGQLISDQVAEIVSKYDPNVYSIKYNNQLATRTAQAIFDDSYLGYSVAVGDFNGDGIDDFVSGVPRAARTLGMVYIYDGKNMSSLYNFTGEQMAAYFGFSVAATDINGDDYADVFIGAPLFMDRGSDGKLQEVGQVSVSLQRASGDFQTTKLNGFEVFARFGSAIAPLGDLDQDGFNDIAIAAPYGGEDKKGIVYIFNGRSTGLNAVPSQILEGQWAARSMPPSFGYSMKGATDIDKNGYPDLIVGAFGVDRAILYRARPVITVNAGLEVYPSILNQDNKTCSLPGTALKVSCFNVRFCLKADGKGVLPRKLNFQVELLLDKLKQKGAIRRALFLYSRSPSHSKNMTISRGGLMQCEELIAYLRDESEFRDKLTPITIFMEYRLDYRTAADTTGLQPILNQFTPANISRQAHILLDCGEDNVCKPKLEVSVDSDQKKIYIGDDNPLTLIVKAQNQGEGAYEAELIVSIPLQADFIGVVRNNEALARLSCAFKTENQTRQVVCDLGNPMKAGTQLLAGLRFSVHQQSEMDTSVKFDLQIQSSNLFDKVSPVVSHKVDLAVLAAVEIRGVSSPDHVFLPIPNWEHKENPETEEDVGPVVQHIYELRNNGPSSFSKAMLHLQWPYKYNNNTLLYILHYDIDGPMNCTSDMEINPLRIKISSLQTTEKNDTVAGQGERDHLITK
T1 sequence (P06756 891-1048 partner limits assumed): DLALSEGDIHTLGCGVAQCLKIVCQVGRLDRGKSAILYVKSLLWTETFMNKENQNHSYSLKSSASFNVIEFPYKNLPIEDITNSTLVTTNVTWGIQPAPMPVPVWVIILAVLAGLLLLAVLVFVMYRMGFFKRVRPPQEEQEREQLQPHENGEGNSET
T1 sequence (P05106 27-788): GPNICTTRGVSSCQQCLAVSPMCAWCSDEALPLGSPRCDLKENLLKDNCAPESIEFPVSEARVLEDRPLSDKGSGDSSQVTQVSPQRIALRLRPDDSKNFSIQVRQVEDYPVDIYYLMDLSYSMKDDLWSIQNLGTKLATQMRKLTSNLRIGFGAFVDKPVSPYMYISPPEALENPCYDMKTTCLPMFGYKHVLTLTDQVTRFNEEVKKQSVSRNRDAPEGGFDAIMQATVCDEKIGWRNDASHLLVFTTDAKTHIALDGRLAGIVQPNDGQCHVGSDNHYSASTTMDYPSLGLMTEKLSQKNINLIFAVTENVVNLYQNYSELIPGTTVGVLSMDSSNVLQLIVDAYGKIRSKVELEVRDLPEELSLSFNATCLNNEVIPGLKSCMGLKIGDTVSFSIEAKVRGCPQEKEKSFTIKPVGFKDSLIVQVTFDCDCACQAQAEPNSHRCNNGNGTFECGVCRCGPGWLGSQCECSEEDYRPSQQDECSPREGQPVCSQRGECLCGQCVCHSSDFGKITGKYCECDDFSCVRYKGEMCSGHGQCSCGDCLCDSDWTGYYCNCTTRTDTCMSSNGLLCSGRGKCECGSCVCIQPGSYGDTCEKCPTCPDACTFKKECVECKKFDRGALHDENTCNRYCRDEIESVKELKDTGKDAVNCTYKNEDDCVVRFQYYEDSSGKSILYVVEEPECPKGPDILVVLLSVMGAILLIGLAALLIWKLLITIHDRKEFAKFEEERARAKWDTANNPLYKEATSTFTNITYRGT
The experiment can be described thus: In vitro solid phase purified αvβ3 binding assay (vitronectin/αvβ3). To be noted: isolated human αvβ3, 5 nM vitronectin; read-out: αvβ3 Binding IC50. As for the experimental part: as §1

Each structure is given as a SMILES string.

GPIIb/IIIa, sequence (P08514 32-887 limits assumed): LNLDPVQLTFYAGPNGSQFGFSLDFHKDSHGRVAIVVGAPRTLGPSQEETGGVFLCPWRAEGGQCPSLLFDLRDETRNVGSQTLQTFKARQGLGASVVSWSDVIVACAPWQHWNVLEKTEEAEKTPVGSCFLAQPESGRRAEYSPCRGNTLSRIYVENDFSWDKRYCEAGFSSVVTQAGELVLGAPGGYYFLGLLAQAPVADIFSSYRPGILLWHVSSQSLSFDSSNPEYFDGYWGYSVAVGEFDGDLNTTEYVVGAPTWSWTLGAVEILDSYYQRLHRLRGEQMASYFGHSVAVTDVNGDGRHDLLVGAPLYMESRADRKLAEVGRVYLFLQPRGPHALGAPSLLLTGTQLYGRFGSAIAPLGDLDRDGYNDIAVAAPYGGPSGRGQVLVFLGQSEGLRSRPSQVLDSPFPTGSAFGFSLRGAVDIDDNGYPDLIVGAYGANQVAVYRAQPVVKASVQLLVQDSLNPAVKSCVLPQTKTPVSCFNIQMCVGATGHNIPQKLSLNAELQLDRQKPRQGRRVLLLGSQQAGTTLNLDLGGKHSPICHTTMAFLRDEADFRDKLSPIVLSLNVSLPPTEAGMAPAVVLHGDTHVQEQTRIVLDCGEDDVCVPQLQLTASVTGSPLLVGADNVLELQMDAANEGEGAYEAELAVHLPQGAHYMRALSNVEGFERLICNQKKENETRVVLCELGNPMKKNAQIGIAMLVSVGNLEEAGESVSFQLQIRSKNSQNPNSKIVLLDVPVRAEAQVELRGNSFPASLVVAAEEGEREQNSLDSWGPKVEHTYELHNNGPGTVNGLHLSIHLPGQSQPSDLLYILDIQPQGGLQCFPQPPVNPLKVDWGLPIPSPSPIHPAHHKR
GPIIb/IIIa, sequence (P08514 891-1039 partner limits assumed): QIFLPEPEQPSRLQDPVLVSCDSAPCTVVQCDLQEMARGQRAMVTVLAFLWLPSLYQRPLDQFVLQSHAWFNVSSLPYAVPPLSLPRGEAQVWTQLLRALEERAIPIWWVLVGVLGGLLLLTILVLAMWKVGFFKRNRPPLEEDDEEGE
GPIIb/IIIa, sequence (P05106 27-788): as the sequence (P05106 27-788) above

Consider `Cc1c(C)c(C)c(S(=O)(=O)N[C@@H](Cc2nc3ccc(/C=C/CN4CCCC4=N)cc3c(=O)[nH]2)C(=O)O)c(C)c1C` [Compound 27, (αS)-3,4-dihydro-6-[(1E)-3-(2-imino-1-pyrrolidinyl)-1-propenyl]-4-oxo-α-[[(2,3,4,5,6-pentamethylphenyl)sulfonyl]amino]-2-quinazolinepropanoic acid], for which the IC50 on GPIIb/IIIa came to 0.019 µM; at Human αvβ3 it was 0.12 µM.

Take `O=C(O)[C@H](Cc1nc2ccc(/C=C/CNc3ccccn3)cc2c(=O)[nH]1)NS(=O)(=O)c1ccc(S(=O)(=O)c2ccccc2)s1` [Compound 28, (αS)-3,4-dihydro-4-oxo-α-[[[5-(phenylsulfonyl)-2-thienyl]sulfonyl]amino]-6-[(1E)-3-(2-pyridinylamino)-1-propenyl]-2-quinazolinepropanoic acid]: the IC50 on GPIIb/IIIa was 2.2 µM; on Human αvβ3 it was greater than 0.3 µM.

Turning to `Cc1cccc(Cl)c1S(=O)(=O)N[C@@H](Cc1nc2ccc(/C=C/CNc3ccccn3)cc2c(=O)[nH]1)C(=O)O` [Compound 29, α-[[(2-chloro-6-methylphenyl)sulfonyl]amino]-(αS)-3,4-dihydro-4-oxo-6-[(1E)-3-(2-pyridinylamino)-1-propenyl]-2-quinazolinepropanoic acid], the IC50 at GPIIb/IIIa is 0.24 µM; on Human αvβ3 it was 0.038 µM.

As to `Cc1c(C)c(C)c(S(=O)(=O)N[C@@H](Cc2nc3ccc(/C=C/CNc4nccn4C)cc3c(=O)[nH]2)C(=O)O)c(C)c1C` [Compound 30, (αS)-3,4-dihydro-6-[(1E)-3-[(1-methyl-1H-imidazol-2-yl)amino]-1-propenyl]-4-oxo-α-[[(2,3,4,5,6-pentamethylphenyl)sulfonyl]amino]-2-quinazolinepropanoic acid], the IC50 on GPIIb/IIIa was 0.083 µM; on Human αvβ3, 0.2 µM.

`O=C(O)[C@H](Cc1nc2ccc(/C=C/CNc3ccccn3)cc2c(=O)[nH]1)NS(=O)(=O)c1ccc(-c2ccon2)s1` [Compound 31, (αS)-3,4-dihydro-α-[[[5-(3-isoxazolyl)-2-thienyl]sulfonyl]amino]-4-oxo-6-[(1E)-3-(2-pyridinylamino)-1-propenyl]-2-quinazolinepropanoic acid]: the IC50 at GPIIb/IIIa was determined as 1.8 µM; on Human αvβ3, 0.07 µM.

Take `COc1ccc(OC)c(S(=O)(=O)N[C@@H](Cc2nc3ccc(/C=C/CNc4ccccn4)cc3c(=O)[nH]2)C(=O)O)c1` [Compound 32, α-[[(2,5-dimethoxyphenyl)sulfonyl]amino]-(αS)-3,4-dihydro-4-oxo-6-[(1E)-3-(2-pyridinylamino)-1-propenyl]-2-quinazolinepropanoic acid]: the IC50 is 3.9 µM at GPIIb/IIIa and 0.021 µM on Human αvβ3.

For the compound `COc1ccc(S(=O)(=O)N[C@@H](Cc2nc3ccc(/C=C/CNc4ccccn4)cc3c(=O)[nH]2)C(=O)O)cc1OC` [Compound 33, α-[[(3,4-dimethoxyphenyl)sulfonyl]amino]-(αS)-3,4-dihydro-4-oxo-6-[(1E)-3-(2-pyridinylamino)-1-propenyl]-2-quinazolinepropanoic acid], the values for the IC50 at GPIIb/IIIa and on Human αvβ3 were 1.1 µM and 0.013 µM, respectively.

For `O=C(O)[C@H](Cc1nc2ccc(/C=C/CNc3ccccn3)cc2c(=O)[nH]1)NS(=O)(=O)c1cccs1` [Compound 34, (αS)-3,4-dihydro-4-oxo-6-[(1E)-3-(2-pyridinylamino)-1-propenyl]-α-[(2-thienylsulfonyl)amino]-2-quinazolinepropanoic acid], the IC50 came out at 1.6 µM on GPIIb/IIIa and 0.083 µM on Human αvβ3.

On to `O=C(O)[C@H](Cc1nc2ccc(/C=C/CNc3ccccn3)cc2c(=O)[nH]1)NS(=O)(=O)c1ccc(OC(F)(F)F)cc1` [Compound 35, (αS)-3,4-dihydro-4-oxo-6-[(1E)-3-(2-pyridinylamino)-1-propenyl]-α-[[[4-(trifluoromethoxy)phenyl]sulfonyl]amino]-2-quinazolinepropanoic acid], for which the IC50 was determined as 4.8 µM at GPIIb/IIIa and 0.059 µM on Human αvβ3.
